Assay results published in ChEMBL document CHEMBL4480381, “Origin and bioactivities of thiosulfinated FK228” (Medchemcomm, 2019).

Molecular target: Histone deacetylase 4 (Homo sapiens, UniProt P56524)
Assay: Inhibition of human recombinant C-terminal GST-tagged HDAC4 (101 to 1084 residues) expressed in baculovirus infected Sf9 insect cells after 1 hr by HDAC-Glo1/2 luminescent assay

Histone deacetylase 4, sequence (P56524 whole entry, the tested form may be a part): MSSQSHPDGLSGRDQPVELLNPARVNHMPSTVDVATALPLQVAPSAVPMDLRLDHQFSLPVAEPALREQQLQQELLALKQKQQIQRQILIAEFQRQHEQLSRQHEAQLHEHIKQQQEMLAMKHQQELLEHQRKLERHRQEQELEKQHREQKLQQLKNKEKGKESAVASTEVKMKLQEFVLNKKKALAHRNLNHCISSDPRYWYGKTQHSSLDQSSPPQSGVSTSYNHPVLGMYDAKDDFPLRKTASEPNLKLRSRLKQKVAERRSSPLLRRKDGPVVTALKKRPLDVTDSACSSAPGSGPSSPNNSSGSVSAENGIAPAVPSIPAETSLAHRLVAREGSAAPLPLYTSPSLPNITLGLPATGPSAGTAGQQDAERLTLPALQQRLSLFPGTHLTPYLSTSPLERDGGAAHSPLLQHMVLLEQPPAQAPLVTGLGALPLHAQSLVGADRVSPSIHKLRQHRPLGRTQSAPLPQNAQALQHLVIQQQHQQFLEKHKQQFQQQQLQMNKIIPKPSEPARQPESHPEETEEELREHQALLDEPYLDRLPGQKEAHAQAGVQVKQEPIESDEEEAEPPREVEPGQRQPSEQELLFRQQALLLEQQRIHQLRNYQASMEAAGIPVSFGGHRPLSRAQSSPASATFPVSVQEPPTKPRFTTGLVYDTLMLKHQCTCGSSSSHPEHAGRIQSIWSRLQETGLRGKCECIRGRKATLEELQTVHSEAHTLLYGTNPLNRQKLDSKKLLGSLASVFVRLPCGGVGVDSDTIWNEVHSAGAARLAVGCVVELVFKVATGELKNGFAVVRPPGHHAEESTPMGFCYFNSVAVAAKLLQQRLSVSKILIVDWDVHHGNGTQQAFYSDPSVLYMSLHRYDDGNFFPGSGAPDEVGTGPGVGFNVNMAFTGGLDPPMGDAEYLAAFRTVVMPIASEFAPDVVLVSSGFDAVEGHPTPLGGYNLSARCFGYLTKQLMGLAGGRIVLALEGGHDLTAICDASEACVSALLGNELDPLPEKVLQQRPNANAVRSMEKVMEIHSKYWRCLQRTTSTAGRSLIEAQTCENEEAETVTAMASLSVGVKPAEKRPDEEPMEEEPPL

IC50: 4.46 µM
SMILES: C/C=C1\NC(=O)[C@H]2CSSCC/C=C/[C@H](CC(=O)N[C@H](C(C)C)C(=O)N2)OC(=O)[C@H](C(C)C)NC1=O [ROMIDEPSIN]
